In the NIST ThermoML archive (doi:10.1021/acs.jced.5b00804):

Conditions: 101.33 kPa, Liquid; for viscosity: Capillary tube (Ostwald / Ubbelohde) method; for mass density: Pycnometric method

NCCN [ethane-1,2-diamine]
Conditions | mass density [kg/m3] | viscosity [mPa·s]
303.15 K | 890.3 | 1.26
308.15 K | 885.9 | 1.18
313.15 K | 881.7 | 1.03
318.15 K | 876.9 | 0.938
323.15 K | 871.3 | 0.905
